Structures can show the parent of a compound that is named as a salt. The source made the active and inactive calls.
Legend:
[1] = tested on: Streptococcus sp. 'group A'; experiment: growth inhibition of control SK(-) GAS strain, dose response, counter-screen for streptokinase expression inhibitor project, luminescence, kanamycin, BacTiterGlo, confirmation (AID 1900); assay type: functional, organism-based
[2] = target: T1, Streptokinase A (Streptococcus pyogenes serotype M1, UniProt P10520); experiment: S. pyogenes streptokinase expression inhibitors, potency, dose response, plasminogen activation absorbance, OD405 (AID 1914); assay type: functional, Streptococcus pyogenes M1 GAS;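 note: secreted streptokinase activity via plasminogen activation per viability signal from cell pellet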
T1 sequence (P10520 whole entry): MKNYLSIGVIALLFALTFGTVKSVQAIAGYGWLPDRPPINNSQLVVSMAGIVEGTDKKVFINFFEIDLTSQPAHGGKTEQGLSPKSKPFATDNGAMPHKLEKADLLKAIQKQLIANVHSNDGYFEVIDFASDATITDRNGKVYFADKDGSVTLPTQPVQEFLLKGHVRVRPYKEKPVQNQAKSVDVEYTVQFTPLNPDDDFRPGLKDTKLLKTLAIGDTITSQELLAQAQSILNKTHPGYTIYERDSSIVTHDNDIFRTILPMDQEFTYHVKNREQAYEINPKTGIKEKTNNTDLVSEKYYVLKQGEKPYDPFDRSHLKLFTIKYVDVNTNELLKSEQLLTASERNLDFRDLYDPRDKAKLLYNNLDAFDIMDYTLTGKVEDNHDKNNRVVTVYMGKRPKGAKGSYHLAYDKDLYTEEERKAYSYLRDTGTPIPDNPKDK

[3] = tested on: Streptococcus; experiment: Group A Streptococcus viability loss, dose response, counter-screen for streptokinase expression inhibitor project, luminescence, BacTiterGlo (AID 1915); assay type: functional, organism-based;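 note: potency for reduction of bacterial viability or growth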
[4] = THP-1 cell cytotoxicity, dose response, cytotoxicity control for non-replicating M. tuberculosis project (AID 489025); assay type: functional
[5] = HepG2 cell cytotoxicity, dose response, cytotoxicity control for non-replicating M. tuberculosis project (AID 489018); assay type: functional; conditions: Mycobacterium tuberculosis
[6] = Vero E6 cell cytotoxicity, dose response, cytotoxicity control for non-replicating M. tuberculosis project, secondary assay (AID 492998); assay type: functional, VeroE6; conditions: Vero C1008
[7] = target: Nonstructural protein 1 (Influenza A virus, UniProt Q194T2); assay type: functional, Influenza A virus (A/California/07/2009(H1N1))
Sequence of Nonstructural protein 1 (Q194T2 whole entry): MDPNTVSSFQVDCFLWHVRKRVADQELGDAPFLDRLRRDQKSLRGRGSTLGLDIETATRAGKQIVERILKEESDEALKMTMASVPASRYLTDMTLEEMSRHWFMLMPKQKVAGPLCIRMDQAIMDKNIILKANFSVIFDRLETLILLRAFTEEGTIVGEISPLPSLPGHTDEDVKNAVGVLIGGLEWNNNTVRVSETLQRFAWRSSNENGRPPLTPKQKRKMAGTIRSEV

[8] = cells; assay type: functional
[9] = HEK293T cell cytotoxicity, dose response, cytotoxicity control, CellTiter-Glo luminescence, dry powder, set 2 (AID 720595); assay type: functional, cell-based; conditions: HEK293
[10] = HeLa cell cytotoxicity, dose response, cytotoxicity control, CellTiter-Glo luminescence, dry powder, set 2 (AID 720593); assay type: functional, cell-based
[11] = target: NAD-dependent protein deacylase sirtuin-5, mitochondrial (Homo sapiens, UniProt Q9NXA8); experiment: SIRT5 deacylase inhibitors, dose response, biochemical, fluorescence imaging, cherry-pick, set 6 (AID 720597)
Sequence of NAD-dependent protein deacylase sirtuin-5, mitochondrial (Q9NXA8 whole entry): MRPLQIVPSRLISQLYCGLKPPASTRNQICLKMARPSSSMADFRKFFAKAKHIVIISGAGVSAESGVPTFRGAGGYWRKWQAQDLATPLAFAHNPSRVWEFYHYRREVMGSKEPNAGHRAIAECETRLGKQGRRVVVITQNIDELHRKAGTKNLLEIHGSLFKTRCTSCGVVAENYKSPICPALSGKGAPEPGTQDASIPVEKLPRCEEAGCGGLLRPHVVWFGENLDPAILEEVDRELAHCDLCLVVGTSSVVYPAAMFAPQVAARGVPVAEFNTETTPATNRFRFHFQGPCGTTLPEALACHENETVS

[12] = A Cell-Based Confirmatory Screen for Compounds that Inhibit VEEV, TC-83 (8).; assay type: functional
[13] = A Cell-Based Confirmatory Screen for Compounds that Inhibit VEEV, TC-83 (5).; assay type: functional
[14] = A Cell-Based Confirmatory Screen for Compounds that Inhibit VEEV TC-83 (4).; assay type: functional
[15] = Late-stage results from the probe development effort to identify antagonists of arginine vasopressin receptor 1a (AVPR1a): fluorescence-based cell-based dose response AVPR1a inhibition assay.; assay type: functional
[16] = target: Vasopressin V1b receptor (Homo sapiens, UniProt P47901); experiment: Late-stage results from the probe development effort to identify antagonists of arginine vasopressin receptor 1a (AVPR1a): fluorescence-based cell-based dose response AVPR1b inhibition counterscreen assay.; assay type: functional
Sequence of Vasopressin V1b receptor (P47901 whole entry): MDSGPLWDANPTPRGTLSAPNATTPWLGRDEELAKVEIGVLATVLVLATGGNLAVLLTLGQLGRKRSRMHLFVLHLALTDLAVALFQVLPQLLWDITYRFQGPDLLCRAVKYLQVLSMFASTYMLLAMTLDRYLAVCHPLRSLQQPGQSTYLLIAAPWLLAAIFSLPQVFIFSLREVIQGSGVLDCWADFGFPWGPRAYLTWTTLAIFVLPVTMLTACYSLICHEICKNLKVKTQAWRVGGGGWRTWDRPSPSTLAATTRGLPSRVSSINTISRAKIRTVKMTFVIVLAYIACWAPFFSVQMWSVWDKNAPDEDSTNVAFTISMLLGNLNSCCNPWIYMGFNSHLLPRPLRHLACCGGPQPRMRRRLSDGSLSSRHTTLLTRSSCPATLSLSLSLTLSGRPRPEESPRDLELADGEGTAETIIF

[17] = target: Vasopressin V2 receptor (Homo sapiens, UniProt P30518); experiment: Late-stage results from the probe development effort to identify antagonists of arginine vasopressin receptor 1a (AVPR1a): fluorescence-based cell-based dose response AVPR2 inhibition counterscreen assay.; assay type: functional
Sequence of Vasopressin V2 receptor (P30518 whole entry): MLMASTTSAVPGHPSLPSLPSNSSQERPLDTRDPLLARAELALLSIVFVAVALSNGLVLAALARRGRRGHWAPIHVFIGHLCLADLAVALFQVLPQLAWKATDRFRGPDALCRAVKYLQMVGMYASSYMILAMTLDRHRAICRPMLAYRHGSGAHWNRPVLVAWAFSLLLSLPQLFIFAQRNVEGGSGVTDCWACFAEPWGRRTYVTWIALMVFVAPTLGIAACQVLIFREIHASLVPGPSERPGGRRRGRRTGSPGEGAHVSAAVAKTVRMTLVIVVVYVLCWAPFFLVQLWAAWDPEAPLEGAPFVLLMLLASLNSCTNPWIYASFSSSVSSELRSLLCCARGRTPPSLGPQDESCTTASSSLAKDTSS

[18] = Late-stage results from the probe development effort to identify antagonists of arginine vasopressin receptor 1a (AVPR1a): fluorescence-based cell-based dose response OXTR inhibition counterscreen assay.; assay type: functional
[19] = inhibitors of non-replicating M. tuberculosis, dose response, luciferase, dry powder (AID 651619); assay type: functional; conditions: Mycobacterium tuberculosis
[20] = cytotoxicity in HepG2 cells, dose response, cytotoxicity control, cell-based, plate reader, dry powder (AID 651947); assay type: functional
[21] = inhibitors of non-replicating M. tuberculosis, dose response, luciferase, dry powder (AID 651620); assay type: functional; conditions: Mycobacterium tuberculosis
[22] = growth inhibition of replicating M. tuberculosis, dose response, counter-screen, dry powder, IC90 (AID 651617); assay type: functional; conditions: Mycobacterium tuberculosis
[23] = target: Induced myeloid leukemia cell differentiation protein Mcl-1 (Homo sapiens, UniProt Q07820); experiment: MCL1-BIM BH3 interaction inhibitors, dose response, biochemical, fluorescence polarization, BIM-BH3 peptide, 1536-well (AID 2217)
Sequence of Induced myeloid leukemia cell differentiation protein Mcl-1 (Q07820 whole entry): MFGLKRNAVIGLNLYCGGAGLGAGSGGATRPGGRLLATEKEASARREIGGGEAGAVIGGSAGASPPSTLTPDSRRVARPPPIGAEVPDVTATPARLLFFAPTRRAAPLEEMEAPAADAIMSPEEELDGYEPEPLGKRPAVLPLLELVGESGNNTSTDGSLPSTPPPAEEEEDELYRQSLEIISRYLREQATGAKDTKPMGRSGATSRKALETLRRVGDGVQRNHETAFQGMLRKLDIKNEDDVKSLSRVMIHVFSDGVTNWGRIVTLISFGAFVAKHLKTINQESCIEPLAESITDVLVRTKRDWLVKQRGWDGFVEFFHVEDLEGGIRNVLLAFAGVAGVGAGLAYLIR

[24] = target: Bcl-2-like protein 1 (Homo sapiens, UniProt Q07817); experiment: BCL-XL inhibitors, dose response, selectivity assay for MCL1 inhibitor project, biochemical, fluorescence polarization, 1536-well (AID 2218)
Sequence of Bcl-2-like protein 1 (Q07817 whole entry): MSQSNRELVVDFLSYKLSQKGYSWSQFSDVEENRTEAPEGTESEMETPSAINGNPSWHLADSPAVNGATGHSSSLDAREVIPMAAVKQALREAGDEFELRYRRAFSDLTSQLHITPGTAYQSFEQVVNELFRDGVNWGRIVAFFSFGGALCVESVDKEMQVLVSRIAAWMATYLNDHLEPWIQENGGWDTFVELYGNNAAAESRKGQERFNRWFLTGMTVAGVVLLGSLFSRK

[25] = P. falciparum Dd2 growth inhibitors, dose response, SYBR Green, cherry-picked samples (AID 1159567); assay type: functional, cell-based
[26] = HepG2 cell cytotoxicity, dose response, cytotoxicity control, cherry-picked samples (AID 1159577); assay type: functional, cell-based
[27] = P. falciparum Dd2 growth inhibitors, dose response, SYBR Green, dry powder samples, set 9 (AID 1159568); assay type: functional, cell-based
[28] = P. falciparum Dd2 growth inhibitors, dose response, SYBR Green, dry powder samples, set 4 (AID 1159572); assay type: functional, cell-based
[29] = P. falciparum Dd2 blood-stage growth inhibition, dose response, SYBR Green fluorescence, erythrocytes, dry powder, set 2 (AID 1159574); assay type: functional, cell-based
[30] = tested on: HeLa; experiment: HeLa cell cytotoxicity, dose response, cytotoxicity control, ATP luminescence, cherry-pick samples (AID 687004); assay type: functional, cell-based; conditions: Homo sapiens
[31] = Dose-response inhibition of insulin secretion in a rat insulinoma line at 5 mM glucose (AID 1117331); assay type: functional, cell-based; conditions: INS-1E

Structure (SMILES): O=C(Nc1nc(-c2ccccn2)cs1)c1ccco1
- EC50 [1]: 10.8 µM (active)
- EC50 [2]: > 150 µM (not active)
- EC50 [3]: > 150 µM (not active)
- CC50 [4]: 6.1 µM (active)
- CC50 [5]: > 20 µM (active)
- CC50 [6]: 11.3 µM (active)
- IC50 [7]: 7.12 µM (active)
- IC50 [8]: 1.68 µM (active)
- AC50 [9]: 7.58 µM (active)
- AC50 [10]: > 52 µM (inactive)

Structure (SMILES): Cc1cccc(S(=O)(=O)N(C)C[C@H]2OCc3cnnn3CCCC(=O)N([C@H](C)CO)C[C@@H]2C)c1
- AC50 [11]: 23.9 µM (active)

Structure (SMILES): CCN1CCN(Cc2nc3ccc([N+](=O)[O-])cc3c(=O)n2-c2ccccc2)CC1
- IC50 [12]: 0.32 µM (active)
- IC50 [13]: 0.27 µM (active)
- IC50 [14]: 0.01 µM (active)

Structure (SMILES): Cc1ccccc1N1CCN(c2nc3ccccc3n2CC2CC2)CC1
- IC50 [15]: 7.54 µM (active)
- IC50 [16]: 15.5 µM (inactive)
- IC50 [17]: 19.4 µM (inactive)
- IC50 [18]: 19.4 µM (inactive)

Structure (SMILES): c1ccc(Cn2cc(CSc3nnc(C4CCCC4)o3)nn2)cc1
- IC90 [19]: 4 µM (active)
- AC50 [20]: > 52 µM (inactive)
- IC90 [21]: 4 µM (active)
- IC90 [22]: 250 µM (active)

Structure (SMILES): COc1cccc(/C=N/NC(=S)Nc2cccc(C(=O)O)c2)c1O
- IC50 [23]: > 109 µM (not active)
- IC50 [24]: > 109 µM (not active)
- IC50 [7]: 4.94 µM (active)

Structure (SMILES): C/C=C/c1ccc([C@@H]2[C@@H]3CN(Cc4cccc(F)c4)C[C@H]2N3)cc1
- AC50 [25]: 4.24 µM (active)
- AC50 [26]: 9.58 µM (active)

Structure (SMILES): O=C(Nc1ccccc1F)N1CCCCN2[C@H](C1)[C@@H](c1ccc(/C=C/c3ccccc3)cc1)[C@@H]2CO
- AC50 [27]: 7.14 µM (active)

Structure (SMILES): COc1ccc2c3c([nH]c2c1)[C@H](CO)N(C(C)=O)CC31CCN(C(=O)Nc2ccc(F)cc2)CC1
- AC50 [28]: 0.834 µM (active)

Structure (SMILES): COc1ccc(S(=O)(=O)N(C)C[C@@H]2OCc3ccccc3-c3c(n(C)c4ccccc34)C(=O)N([C@H](C)CO)C[C@@H]2C)cc1
- AC50 [29]: 6.36 µM (active)

Structure (SMILES): CCCN1CCCC[C@H]1C(=O)Nc1c(C)cccc1C [ROPIVACAINE HYDROCHLORIDE]
- AC50 [30]: > 52 µM (inactive)
- IC50 [31]: > 33.3 µM (inactive)
